Data taken from publication PMC6437269, “OXA-48-Mediated Ceftazidime-Avibactam Resistance Is Associated with Evolutionary Trade-Offs” (mSphere, 2019).
In brackets after ≈: the same amount, converted by molar mass. Like-named read-outs stand apart in the source and are kept apart here.

What was measured:
E. coli MG1655 (MP100) = assay: microbe, parasite or virus in culture; format: cell-based, Escherichia coli; details: Escherichia coli, MG1655
Procedure: (§1) For MIC determination, single colonies were suspended in 0.9% saline buffer to a 0.5 McFarland standard and further diluted 1:100 in MH broth. Fifty microliters of the bacterial suspension was loaded onto in-house-designed and premade Sensititre microtiter plates (TREK Diagnostic Systems/Thermo Fisher Scientific, East Grinstead, United Kingdom). The plates were incubated for 20 h at 37°C. Antibiotic susceptibility testing was performed in duplicates.

[1] = system: MP101 (MP100 transformed with p50579417_3_OXA-48); assay: MIC determination, MP101 (MG1655 with native OXA-48 plasmid); format: cell-based, Escherichia coli; details: Escherichia coli; Table 6; MP101, native plasmid; read-out: MIC
Description: Mueller-Hinton (MH) agar and broth were purchased from Thermo Fisher Scientific (East Grinstead, United Kingdom). Luria-Bertani (LB) broth, LB agar, ampicillin, amoxicillin, cefepime, CAZ, imipenem, meropenem, piperacillin, and tazobactam were obtained from Sigma-Aldrich (St. Louis, MO). Nitrocefin was purchased from Merck (Darmstadt, Germany). The characteristics of the clinical E. coli strain 50579417 harboring the OXA-48 plasmid (p50579417_3_OXA-48) have been described previously ([61], [62]). The plasmid p50579417_3_OXA-48 was conjugated into rifampin-resistant E. coli TOP10 and subsequently isolated using a plasmid mini-purification kit (Qiagen, Germany). E. coli MG1655 (DA4201) was electroporated with p50579417_3_OXA-48 as published previously ([63]). Transformants positive for blaOXA-48 were checked by PCR using REDTaq ready mix (Sigma-Aldrich, St. Louis, MO) and preOXA-48 primers ([61]).
as §1

E. coli TOP10 = assay: microbe, parasite or virus in culture; format: cell-based; details: Escherichia coli
Procedure: as §1

[2] = system: MP105 (E. coli TOP10 expressing OXA-48:P68A); assay: microbe, parasite or virus in culture; format: cell-based; details: Escherichia coli; Table 3; MP105, OXA-48:P68A in pCR-blunt II TOPO
[3] = system: MP107 (MP100 transformed with p50579417_3_OXA-48-CAZ); assay: MIC determination, MP107 (MG1655 with CAZ-adapted plasmid); format: cell-based; details: Escherichia coli; Table 6; MP107, adapted plasmid p50579417-OXA-48-CAZ
Procedure: as §1

[4] = system: MP104 (E. coli TOP10 expressing native OXA-48); assay: MIC determination, TOP10 expressing native OXA-48 (MP104); format: cell-based; details: Escherichia coli; Table 3; MP104, native OXA-48 in pCR-blunt II TOPO
Procedure: as §1
For a functional resistance profile, the native and mutated blaOXA-48 genes were cloned in the pCR-blunt II-TOPO vector (Invitrogen, CA) and expressed in E. coli TOP10 (Invitrogen, CA). The PCR product was obtained by Phusion High Fidelity PCR mastermix with High Fidelity buffer (New England Biolabs, MA) and preOXA-48 primers ([61]). Transformants were selected on LB agar plates containing 50 or 100 mg/liter ampicillin. Insertion size was verified by Sanger sequencing using M13 forward (5′-[…]-3′) and reverse (5′-[…]-3′) primers.

[5] = system: MP108 (MP100 transformed with p50579417_3_OXA-48-CAZ-AVI); assay: MIC determination, MP108 (MG1655 with CAZ-AVI-adapted plasmid); format: cell-based; details: Escherichia coli; Table 6; MP108, adapted plasmid p50579417-OXA-48-CAZ-AVI
Procedure: as §1

OXA-48:P68A = OXA-48:P68A (Klebsiella pneumoniae, UniProt Q6XEC0, P68A); assay: Steady-state enzyme kinetics, OXA-48:P68A; format: biochemical; details: substrate hydrolysis, 25°C, pH 7.0, error = 95% CI
OXA-48:P68A, sequence (Q6XEC0 23-265 P68A): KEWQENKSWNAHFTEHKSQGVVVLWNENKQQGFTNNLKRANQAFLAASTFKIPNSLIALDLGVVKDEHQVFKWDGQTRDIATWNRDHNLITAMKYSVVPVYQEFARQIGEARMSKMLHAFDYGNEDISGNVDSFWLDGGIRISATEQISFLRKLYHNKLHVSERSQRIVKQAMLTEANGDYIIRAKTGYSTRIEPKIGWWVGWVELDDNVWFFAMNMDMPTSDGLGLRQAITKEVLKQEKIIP

[6] = system: CC(C)(O/N=C(\C(=O)N[C@@H]1C(=O)N2C(C(=O)[O-])=C(C[n+]3ccccc3)CS[C@H]12)c1csc(N)n1)C(=O)O; assay: purified protein, by the assay type; details: other: substrate hydrolysis, 25°C, 0.1 M phosphate buffer pH 7.0, 50 mM NaHCO3, error = 95% CI
[7] = system: CO/N=C(\C(=O)N[C@@H]1C(=O)N2C(C(=O)[O-])=C(C[N+]3(C)CCCC3)CS[C@H]12)c1csc(N)n1; assay: purified protein, by the assay type; details: other: substrate hydrolysis, 25°C, 0.1 M phosphate buffer pH 7.0, 50 mM NaHCO3, error = 95% CI
[8] = system: C[C@@H](O)[C@H]1C(=O)N2C(C(=O)O)=C(S[C@@H]3CN[C@H](C(=O)N(C)C)C3)[C@H](C)[C@H]12; assay: purified protein, by the assay type; details: other: substrate hydrolysis, 25°C, 0.1 M phosphate buffer pH 7.0, 50 mM NaHCO3, error = 95% CI
[9] = system: O=C(Cc1cccs1)N[C@@H]1C(=O)N2C(C(=O)O)=C(/C=C/c3ccc([N+](=O)[O-])cc3[N+](=O)[O-])CS[C@H]12; assay: purified protein, by the assay type; details: other: substrate hydrolysis, 25°C, 0.1 M phosphate buffer pH 7.0, 50 mM NaHCO3, error = 95% CI
[10] = system: CCN1CCN(C(=O)N[C@@H](C(=O)N[C@@H]2C(=O)N3[C@@H]2SC(C)(C)[C@@H]3C(=O)O)c2ccccc2)C(=O)C1=O; assay: purified protein, by the assay type; details: other: substrate hydrolysis, 25°C, 0.1 M phosphate buffer pH 7.0, 50 mM NaHCO3, error = 95% CI
[11] = system: C[C@@H](O)[C@H]1C(=O)N2C(C(=O)O)=C(SCCN=CN)C[C@H]12; assay: purified protein, by the assay type; details: other: substrate hydrolysis, 25°C, 0.1 M phosphate buffer pH 7.0, 50 mM NaHCO3, error = 95% CI
[12] = system: CC1(C)S[C@@H]2[C@H](NC(=O)[C@H](N)c3ccccc3)C(=O)N2[C@H]1C(=O)O; assay: purified protein, by the assay type; details: other: substrate hydrolysis, 25°C, 0.1 M phosphate buffer pH 7.0, 50 mM NaHCO3, error = 95% CI

CO/N=C(\C(=O)N[C@@H]1C(=O)N2C(C(=O)O)=C(COC(N)=O)CS[C@H]12)c1ccco1 [CXM, cefuroxime]
MIC (E. coli MG1655 (MP100); Table 6, MP100, read-out: MIC): 8 µg/mL (≈ 18.9 µM) | MIC [1]: 16 µg/mL (≈ 37.7 µM) | MIC (E. coli TOP10; Table 3, read-out: MIC): 16 µg/mL (≈ 37.7 µM) | MIC [2]: 16 µg/mL (≈ 37.7 µM) | MIC [3]: 16 µg/mL (≈ 37.7 µM) | MIC [4]: 16 µg/mL (≈ 37.7 µM) | MIC [5]: 8 µg/mL (≈ 18.9 µM)

CCN1CCN(C(=O)N[C@@H](C(=O)N[C@@H]2C(=O)N3[C@@H]2SC(C)(C)[C@@H]3C(=O)O)c2ccccc2)C(=O)C1=O [PIP, piperacillin]
Km (OXA-48:P68A; read-out: Km): 290 ± 67 µM

OXA-48 (Klebsiella pneumoniae)
Km [6]: 300 ± 150 µM | kcat [6]: 3 ± 0.8 s⁻¹ | kcat/Km [6]: 10000 ± 8000 M⁻¹ s⁻¹ | Km [7]: 1,678 ± 686 µM | kcat [7]: 1.7 ± 0.6 s⁻¹ | kcat/Km [7]: 1000 ± 800 M⁻¹ s⁻¹ | Km [8]: 4 ± 1 µM | kcat [8]: 0.71 ± 0.02 s⁻¹ | kcat/Km [8]: 177000 ± 50000 M⁻¹ s⁻¹ | Km [9]: 226 ± 34 µM | kcat [9]: 141 ± 12 s⁻¹ | kcat/Km [9]: 624000 ± 148000 M⁻¹ s⁻¹ | Km [10]: 898 ± 155 µM | kcat [10]: 3.9 ± 0.5 s⁻¹ | kcat/Km [10]: 4000 ± 1000 M⁻¹ s⁻¹ | Km [11]: 13 ± 2 µM | kcat [11]: 4.8 ± 0.2 s⁻¹ | kcat/Km [11]: 365000 ± 71000 M⁻¹ s⁻¹ | Km [12]: 370 ± 70 µM | kcat [12]: 608 ± 53 s⁻¹ | kcat/Km [12]: 1.64e+06 ± 455000 M⁻¹ s⁻¹

C[C@@H](O)[C@H]1C(=O)N2C(C(=O)O)=C(SCCN=CN)C[C@H]12 [IMI, imipenem]
MIC (E. coli MG1655 (MP100)): 0.12 µg/mL (≈ 0.401 µM) | MIC [1]: 1 µg/mL (≈ 3.34 µM) | Km (OXA-48:P68A): 4.2 ± 0.9 µM | kcat (OXA-48:P68A): 0.80 ± 0.04 s⁻¹ | MIC (E. coli TOP10): 0.25 µg/mL (≈ 0.835 µM) | MIC [2]: 0.25 µg/mL (≈ 0.835 µM) | MIC [3]: 0.25 µg/mL (≈ 0.835 µM) | MIC [4]: 1 µg/mL (≈ 3.34 µM) | MIC [5]: 0.25 µg/mL (≈ 0.835 µM)

C[C@@H](O)[C@H]1C(=O)N2C(C(=O)O)=C(S[C@@H]3CN[C@H](C(=O)Nc4cccc(C(=O)O)c4)C3)[C@H](C)[C@H]12 [ETP, ertapenem]
MIC (E. coli MG1655 (MP100); Table 6, MP100, read-out: MIC): 0.015 µg/mL (≈ 0.0315 µM) | MIC [1]: 1 µg/mL (≈ 2.1 µM) | MIC (E. coli TOP10; Table 3, read-out: MIC): 0.015 µg/mL (≈ 0.0315 µM) | MIC [2]: 0.06 µg/mL (≈ 0.126 µM) | MIC [3]: 0.25 µg/mL (≈ 0.526 µM) | MIC [4]: 1 µg/mL (≈ 2.1 µM) | MIC [5]: 0.12 µg/mL (≈ 0.252 µM)

CC1(C)S[C@@H]2[C@H](NC(=O)[C@H](N)c3ccccc3)C(=O)N2[C@H]1C(=O)O [AMP, ampicillin]
kcat (OXA-48:P68A): 25 ± 1 s⁻¹ | Km (OXA-48:P68A; read-out: Km): 77 ± 12 µM

C[C@@H](O)[C@H]1C(=O)N2C(C(=O)O)=C(S[C@@H]3CN[C@H](CNS(N)(=O)=O)C3)[C@H](C)[C@H]12 [DOR, doripenem]
MIC (E. coli MG1655 (MP100); Table 6, MP100, read-out: MIC): 0.015 µg/mL (≈ 0.0357 µM) | MIC [1]: 0.03 µg/mL (≈ 0.0713 µM) | MIC (E. coli TOP10; Table 3, read-out: MIC): 0.03 µg/mL (≈ 0.0713 µM) | MIC [2]: 0.03 µg/mL (≈ 0.0713 µM) | MIC [3]: 0.03 µg/mL (≈ 0.0713 µM) | MIC [4]: 0.03 µg/mL (≈ 0.0713 µM) | MIC [5]: 0.03 µg/mL (≈ 0.0713 µM)
